In US11773099B2, “Compounds and their methods of use” (Praxis Precision Medicines, Inc., priority 2019, dated 2023):

These compounds were tested against T1, human Nav1.6 (hNav1.6) (Homo sapiens, UniProt Q9UQD0) (assay: Modulation of late sodium current (INaL), PatchXpress electrophysiology). Conditions: HEK293; compound at 1 μM; HEK-293 cells expressing recombinant hNav1.6; late current evoked by 300 nM ATX-II; read-out: INaL v1.6 (1 μM, % Inhibition).
T1 construct: expressed in transfected cells; host or cells: HEK-293 (G418 selection)
T1 sequence (Q9UQD0 whole entry): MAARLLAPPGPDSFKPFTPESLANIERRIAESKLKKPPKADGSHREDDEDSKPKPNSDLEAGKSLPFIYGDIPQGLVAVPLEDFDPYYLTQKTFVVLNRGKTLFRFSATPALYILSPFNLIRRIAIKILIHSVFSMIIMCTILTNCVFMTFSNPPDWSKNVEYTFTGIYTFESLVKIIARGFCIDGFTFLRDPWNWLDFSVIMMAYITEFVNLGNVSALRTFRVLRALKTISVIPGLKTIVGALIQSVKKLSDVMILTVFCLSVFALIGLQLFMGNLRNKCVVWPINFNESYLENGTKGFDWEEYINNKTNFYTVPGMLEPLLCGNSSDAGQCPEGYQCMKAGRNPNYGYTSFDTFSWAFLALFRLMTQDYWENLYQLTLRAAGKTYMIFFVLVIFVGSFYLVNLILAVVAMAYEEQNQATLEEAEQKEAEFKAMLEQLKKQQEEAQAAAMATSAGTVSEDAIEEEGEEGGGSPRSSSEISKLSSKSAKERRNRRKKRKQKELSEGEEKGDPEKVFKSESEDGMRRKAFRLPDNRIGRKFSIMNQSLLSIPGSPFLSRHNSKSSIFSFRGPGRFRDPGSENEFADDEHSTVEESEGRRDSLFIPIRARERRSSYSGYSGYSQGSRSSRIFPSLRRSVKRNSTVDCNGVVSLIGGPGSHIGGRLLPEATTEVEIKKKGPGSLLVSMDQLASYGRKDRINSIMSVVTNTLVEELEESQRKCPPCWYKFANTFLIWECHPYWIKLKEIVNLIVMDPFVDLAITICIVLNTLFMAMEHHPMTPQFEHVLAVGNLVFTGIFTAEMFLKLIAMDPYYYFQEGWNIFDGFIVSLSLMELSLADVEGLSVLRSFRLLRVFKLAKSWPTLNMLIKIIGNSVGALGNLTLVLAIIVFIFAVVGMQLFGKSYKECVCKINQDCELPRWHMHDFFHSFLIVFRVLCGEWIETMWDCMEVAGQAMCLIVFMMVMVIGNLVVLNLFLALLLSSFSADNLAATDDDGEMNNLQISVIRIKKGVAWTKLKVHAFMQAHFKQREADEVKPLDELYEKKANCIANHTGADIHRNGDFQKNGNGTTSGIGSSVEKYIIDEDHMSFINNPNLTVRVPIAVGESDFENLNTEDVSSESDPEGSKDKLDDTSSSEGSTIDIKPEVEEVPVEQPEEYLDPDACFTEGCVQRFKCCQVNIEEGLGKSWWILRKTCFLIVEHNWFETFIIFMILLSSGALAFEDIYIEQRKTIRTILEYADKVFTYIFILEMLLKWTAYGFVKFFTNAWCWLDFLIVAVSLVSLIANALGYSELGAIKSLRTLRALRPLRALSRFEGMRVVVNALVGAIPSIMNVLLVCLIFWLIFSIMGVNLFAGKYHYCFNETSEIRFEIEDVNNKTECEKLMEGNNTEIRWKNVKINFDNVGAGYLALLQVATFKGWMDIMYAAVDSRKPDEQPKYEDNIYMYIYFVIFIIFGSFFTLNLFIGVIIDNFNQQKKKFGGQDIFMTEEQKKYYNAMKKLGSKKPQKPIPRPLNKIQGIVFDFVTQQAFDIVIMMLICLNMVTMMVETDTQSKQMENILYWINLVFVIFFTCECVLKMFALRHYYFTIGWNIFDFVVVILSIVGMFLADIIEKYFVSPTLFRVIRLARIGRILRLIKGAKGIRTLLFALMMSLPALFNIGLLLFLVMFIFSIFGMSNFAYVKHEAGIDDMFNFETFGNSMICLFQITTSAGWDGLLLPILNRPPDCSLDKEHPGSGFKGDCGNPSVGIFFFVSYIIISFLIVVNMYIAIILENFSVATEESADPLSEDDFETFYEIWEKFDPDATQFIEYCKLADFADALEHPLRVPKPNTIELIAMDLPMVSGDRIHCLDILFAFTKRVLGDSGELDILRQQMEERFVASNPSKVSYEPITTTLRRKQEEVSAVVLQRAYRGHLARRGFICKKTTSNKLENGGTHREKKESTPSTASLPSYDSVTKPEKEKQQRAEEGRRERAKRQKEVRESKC
Assay type: cell-based
Protocol: Functional characterization of exemplary compounds to modulate INaL expressed by the Nav1.6 voltage-gated sodium channel was accomplished using the PatchXpress™ high throughput electrophysiology platform (Molecular Devices, Sunnyvale, Calif.). HEK-293 cells expressing recombinant, human Nav1.6 (hNav1.6) were grown in DMEM/high-glucose Dulbecco's modified, 10% FBS, 2 mM sodium pyruvate, 10 mM HEPES and 400 μg/mL G418. Cells were grown to 50%-80% confluency prior to harvesting. Trypsinized cells were washed, allowed to recover for 1 hour and then resuspended in extracellular recording solution at a concentration of 1×10^6 cells/ml. The onboard liquid handling facility of the PatchXpress was used for dispensing cells and applying test compounds. Nav late currents were evoked by the application of 300 nM ATX-II. INaL was evoked by depolarizing pulses to 0 mV for 200 ms from a non-inactivating holding potential (e.g., −120 mV) at a frequency of 0.1 Hz. INaL amplitude and stability were determined by analyzing the mean current amplitude over the final 20 ms of the test pulse. Following steady state block with exemplary compounds (e.g., as described herein), a Na^+ free solution containing an impermeant cation (e.g., Choline or NDMG) was added to confirm the identify of the sodium current. Percent steady-state inhibition of INaL was calculated as: [(INaL_compound)/(INaL_control)]*100, where INaL_compound and INaL_control represent INaL recorded in the presence or absence of compound, respectively.
Results from this assay relating to percent inhibition of INaL at hNav1.6 (measured using procedure similar to described above but using HEK-293 cells expressing recombinant, human Nav1.6 (hNav1.6) at 1 μM are summarized in Table 1 below. In this table, “A” indicates inhibition of less than 30%; “B” indicates inhibition of between about 30% to about 70%; and “C” indicates inhibition of greater than 70%.

`FC(F)(F)Oc1ccc(-c2ccn3cncc3c2)cc1` [Compound 1] and `FC(F)(F)Oc1ccc(-c2cc3cncn3cn2)cc1` [Compound 7, 7-[4-(trifluoromethoxy)phenyl]imidazo[1,5-c]pyrimidine] cannot be ordered by inhibition at 1 µM: < 30% for the first, < 30% for the second.

Compared with `FC(F)(F)Oc1ccc(-c2ccn3cnc(C(F)(F)F)c3c2)cc1` [Compound 2], `FC(F)(F)Oc1ccc(-c2cc3c(C(F)(F)F)ncn3cn2)cc1` [Compound 8] is higher in inhibition at 1 µM: < 30% for the first, > 70% for the second.

`FC(F)(F)Oc1ccc(-c2ccn3cnc(C(F)(F)F)c3n2)cc1` [Compound 4] and `COCc1ncn2cnc(-c3ccc(OC(F)(F)F)cc3)cc12` [Compound 26] fall in the same range of inhibition at 1 µM: 30 to 70% for the first, 30 to 70% for the second.

`Cc1cc(OC(F)(F)F)ccc1-c1cnn2cncc2c1` [Compound 5, 3-[2-methyl-4-(trifluoromethoxy)phenyl]imidazo[1,5-b]pyridazine] and `Cc1cc(OC(F)(F)F)ccc1-c1cc2cncn2cn1` [Compound 9, 7-[2-methyl-4-(trifluoromethoxy)phenyl]imidazo[1,5-c]pyrimidine] cannot be ordered by inhibition at 1 µM: < 30% for the first, < 30% for the second.

First: Cc1cc(OC(F)(F)F)ccc1-c1cnn2cnc(C(F)(F)F)c2c1 [Compound 6]
Second: Cc1cc(OC(F)(F)F)ccc1-c1cc2c(C(F)(F)F)ncn2cn1 [Compound 14]
The inhibition at 1 µM of the first is lower: < 30% for the first, > 70% for the second.

First: Fc1cc(-c2cc3cncn3cn2)cnc1OCC(F)(F)F [Compound 10, 7-[5-fluoro-6-(2,2,2-trifluoroethoxy)-3-pyridyl]imidazo[1,5-c]pyrimidine]
Second: C[C@H](Oc1ncc(-c2cc3cncn3cn2)cc1F)C(F)(F)F [Compound 11, 7-[5-fluoro-6-[(1S)-2,2,2-trifluoro-1-methyl-ethoxy]-3-pyridyl]imidazo[1,5-c]pyrimidine]
The inhibition at 1 µM of the first is lower: < 30% for the first, 30 to 70% for the second.

First: C[C@@H](Oc1ncc(-c2cc3cncn3cn2)cc1F)C(F)(F)F [Compound 12, 7-[5-fluoro-6-[(1R)-2,2,2-trifluoro-1-methyl-ethoxy]-3-pyridyl]imidazo[1,5-c]pyrimidine]
Second: CC(C)(Oc1ncc(-c2cc3cncn3cn2)cc1F)C(F)(F)F [Compound 13, 7-[5-fluoro-6-(2,2,2-trifluoro-1,1-dimethyl-ethoxy)-3-pyridyl]imidazo[1,5-c]pyrimidine]
The inhibition at 1 µM of the first is lower: < 30% for the first, 30 to 70% for the second.

`C[C@@H](Oc1ncc(-c2cc3c(C(F)(F)F)ncn3cn2)cc1F)C(F)(F)F` [Compound 15] and `C[C@H](Oc1ncc(-c2cc3c(C(F)(F)F)ncn3cn2)cc1F)C(F)(F)F` [Compound 18] fall in the same range of inhibition at 1 µM: 30 to 70% for the first, 30 to 70% for the second.

`Fc1cc(-c2cc3c(C(F)(F)F)ncn3cn2)cnc1OCC(F)(F)F` [Compound 16] and `Fc1cc(-c2cc3c(C(F)F)ncn3cn2)cnc1OCC(F)(F)F` [Compound 22] cannot be ordered by inhibition at 1 µM: < 30% for the first, < 30% for the second.

`CC(C)(Oc1ncc(-c2cc3c(C(F)(F)F)ncn3cn2)cc1F)C(F)(F)F` [Compound 17] and `CC(C)(Oc1ncc(-c2cc3c(C(F)F)ncn3cn2)cc1F)C(F)(F)F` [Compound 21] fall in the same range of inhibition at 1 µM: 30 to 70% for the first, 30 to 70% for the second.

`C[C@@H](Oc1ncc(-c2cc3c(C(F)F)ncn3cn2)cc1F)C(F)(F)F` [Compound 19] and `C[C@H](Oc1ncc(-c2cc3c(C(F)F)ncn3cn2)cc1F)C(F)(F)F` [Compound 20] cannot be ordered by inhibition at 1 µM: < 30% for the first, < 30% for the second.

`Cc1cc(OC(F)(F)F)ccc1-c1cc2c(C(F)F)ncn2cn1` [Compound 23] and `COCc1ncn2cnc(-c3cnc(O[C@@H](C)C(F)(F)F)c(F)c3)cc12` [Compound 24] cannot be ordered by inhibition at 1 µM: < 30% for the first, < 30% for the second.

First: COCc1ncn2cnc(-c3cnc(O[C@H](C)C(F)(F)F)c(F)c3)cc12 [Compound 25]
Second: COCc1ncn2cnc(-c3cnc(OC(C)(C)C(F)(F)F)c(F)c3)cc12 [Compound 27]
The inhibition at 1 µM of the first is higher: > 70% for the first, < 30% for the second.
